Measured values from US20020035157A1, “Pharmaceutical compositions” (priority 1999, published 2002).
Where two headings read alike, the source gives them in different places.

How the values were obtained:
[1] = tested on: patients with osteoarthritis pain; experiment: Randomised, double blind, placebo controlled study in painful osteoarthritis: pain scores, analgesic consumption, desire to continue (Example 2); format: in vivo, human; details: for Reduction in pain score (VAS): after 42 days versus baseline pain score 4.2 (mean of days 1-4); for Reduction in pain score (VAS) compared to placebo: after 42 days, decrease beyond that given by cream vehicle alone; for percentage of patients who wished to continue with treatment: after six weeks; for Reduction in daily tablet consumption / Tablets per day after treatment: analgesic use; for Reduction in daily tablet consumption: from initial mean of 4 tablets daily; for Tablets per day after treatment: at beginning of treatment 4 tablets per day; for Mean Pain Score after 42 days (VAS): cream four times daily for six weeks to one painful joint, 0-10 VAS, baseline pain score 4.2; for Patients not wishing to continue / Patients wishing to continue: desire to continue with current treatment after six weeks
[2] = tested on: patients with osteoarthritis pain
patients = details: cited from earlier work
healthy individuals = details: 0.1 ml cream on 1 inch^2 of dorsum of non-dominant hand, single application, rated after 6 hours, 0-10 VAS, 40 volunteers

Structure (SMILES) | Reduction in pain score (VAS) [1] [VAS] | Reduction in pain score (VAS) compared to placebo [1] [VAS] | percentage of patients who wished to continue with treatment [1] [%] | Reduction in daily tablet consumption [1] [tablets] | Reduction in daily tablet consumption ([1]; listed as capsaicin) [tablets] | Tablets per day after treatment [1] [tablets per day] | Mean Pain Score after 42 days (VAS) [1] [VAS] | Patients not wishing to continue [1] [patients] | Patients wishing to continue [1] [patients] | Application discomfort - Baseline scores versus treatment, VAS ([2]; regression estimate of baseline discomfort relative to the other groups, 10 cm VAS) [VAS] | patients who suffered burning after application (patients; 0.025% capsaicin, Watson and colleagues, Clinical Therapeutics 1993) | patients who suffered burning discomfort after application (patients; 0.075% capsaicin, The Capsaicin Study Group) | VAS: median (range), burning discomfort (healthy individuals) [VAS] | VAS: median (range), burning discomfort (healthy individuals; listed as C) | initial application discomfort ([2]; equal effect to placebo) | Application discomfort - changes resulting from baseline score, Coefficient ([2]; human, in vivo) | VAS: median (range), burning discomfort (healthy individuals; listed as D)
COc1cc(CNC(=O)CCCC/C=C/C(C)C)ccc1O [Capsaicin, N-(4-hydroxy-3-methoxybenzyl)-8-methylnon-trans-6-enamide] | 0.5 | 0.28 | 24.4 | 0.28 | 0.28 | 3.72 | 3.70 | 29 | 11 | 2.1 | 9 of 33 | 87 of 138 | 3 | 3 (0-7) VAS | – | – | –
O=[N+]([O-])OCC(CO[N+](=O)[O-])O[N+](=O)[O-] [GTN, Glyceryl trinitrate] | 0.59 | 0.37 | 27.5 | – | – | 3.52 | 3.61 | 34 | 11 | – | – | – | 0 | – | marginal initial discomfort | 0.33 | 0 (0-2) VAS
